Data set [1] addresses T1, IL33 and ST2 binding (Homo sapiens, UniProt O95760).
T1 sequence (O95760 112-270 limits assumed): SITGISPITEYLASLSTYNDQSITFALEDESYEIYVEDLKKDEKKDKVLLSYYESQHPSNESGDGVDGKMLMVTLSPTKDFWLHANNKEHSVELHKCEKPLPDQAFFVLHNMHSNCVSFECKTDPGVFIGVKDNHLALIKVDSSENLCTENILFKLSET

A short description of data set [2]: Cellular viability, WST-8 assay, without or with human liver microsomes. Format: cell-based. A general note: Tetrazolium assays rely on reduction of a dye to a coloured formazan, in cell work by metabolically active cells.
Data set [3] relates to Human liver cancer cell line HepG2 cells. Described as above. As to conditions: at 100 μM; for Cellular viability (%) (+) microsome: HepG2, with human liver microsomes; for Cellular viability (%) (−) microsome: HepG2, without human liver microsomes. It counts as cell-based. (In general: Liver microsomes are vesicles of endoplasmic reticulum, rich in cytochrome P450 enzymes.)

The test system of data set [4] is IL-6 secretion in the human mast cell line HMC 1.1. Put plainly: IL-6 production inhibition assay (IL-33 stimulated HMC 1.1 cells, IL-6 ELISA). Format: cell-based. As to conditions: 24 hours; for inhibition at 1 µM: 1 μM compound, read-out: Inhibition of hIL-6 production (%) 1 μM; for inhibition at 10 µM: 10 μM compound, read-out: Inhibition of hIL-6 production (%) 10 μM. Put shortly: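 HMC 1.1 cells stimulated with 200 nM recombinant human IL-33 were exposed 24 hours to compound at 10 μM, 25 μM, 30 μM or 50 μM, among other levels. Secreted IL-6 was quantified by ELISA in triplicate against a standard curve and expressed as % of vehicle.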
Background: An ELISA detects its analyte on a solid surface through an enzyme-linked reagent.

Data set [5] has as its target T1, IL33 and ST2 binding. Briefly: biochemical.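 Note: plate ELISA with coated Flag-tagged human IL-33 and His-tagged human ST2, bound ST2 detected by anti-His HRP and TMB absorbance at 450 nm, 2 h compound incubation.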
Setting [6] is: HepG2, with human liver microsomes, read-out: CC50 (μM) (+) microsome.
[7] abbreviates: HepG2 cells, HepG2, without human liver microsomes, read-out: CC50 (μM) (−) microsome.

Like-named read-outs stand apart in the source and are kept apart here.

What is called inhibition is the drop in the measured response relative to a control, in per cent. For orientation: CC50 means the concentration that lowers cell viability or growth by half. The term IC50 denotes the point on the concentration scale where inhibition reaches its midpoint. A high value points to weaker potency. With `CN(C)CCNC(=O)c1nc(-c2ccc([N+](=O)[O-])cc2)oc1-c1ccccc1[N+](=O)[O-]` [Compound 277, N-(2-(Dimethylamino)ethyl)-5-(2-nitrophenyl)-2-(4-nitrophenyl)oxazole-4-carboxamide], the inhibition on IL33 and ST2 binding [1] (30 µM) is 60%. Moreover, the inhibition at IL33 and ST2 binding [1] (100 µM) is 111%. Also, in data set [2] (setting [6]), the CC50 at 24 h came out at 46.2 µM. For the same compound, the half-maximal cytotoxic concentration (CC50) at 24 h in data set [2] (setting [7]) was determined as 25.4 µM. In addition, in data set [3], the “Cellular viability (%) (+) microsome” value came to 49 at % and the “Cellular viability (%) (−) microsome” value was determined as 46 at %. In data set [4], the inhibition at 1 µM turned out to be 27% and the inhibition at 10 µM came out at 31%. On IL33 and ST2 binding [5], this compound had an IC50 of 14.4 µM.

As to `CC(=O)N1CCN(CCNC(=O)c2nc(-c3ccc(C(F)(F)F)cc3)oc2-c2ccccc2[N+](=O)[O-])CC1` [Compound 284, N-(2-(4-acetylpiperazin-1-yl)ethyl)-5-(2-nitrophenyl)-2-(4-(trifluoromethyl)phenyl)oxazole-4-carboxamide], the inhibition at IL33 and ST2 binding [1] (30 µM) worked out at 101%. Also, at IL33 and ST2 binding [1] (100 µM), the inhibition came to 104%. The CC50 at 24 h in data set [2] (setting [6]) was 46.5 µM. Further, the CC50 at 24 h in data set [2] (setting [7]) was determined as 48.6 µM. Moreover, in data set [3], the “Cellular viability (%) (+) microsome” value was 49 at % and the “Cellular viability (%) (−) microsome” value came out at 40 at %. In data set [4], the inhibition at 1 µM is 27% and the inhibition at 10 µM amounted to 39%. Moreover, the IC50 on IL33 and ST2 binding [5] came out at 3.15 µM.

For the origin of these results see patent US20240287052A1, “NOVEL OXAZOLE DERIVATIVE AND PHARMACEUTICAL COMPOSITION FOR PREVENTING OR TREATING ALLERGIC DISEASES COMPRISING THE SAME” (AZCURIS CO., LTD., priority 2021, published 2024).
